Source: PMC5830883, “A Functional Signature Ontology (FUSION) screen detects an AMPK inhibitor with selective toxicity toward human colon tumor cells” (Scientific Reports, 2018)

Tests used:
[1] = target: T1, AMPKα2 (recombinant AMPKα2β1γ1) (Homo sapiens, UniProt P54619+P54646+Q9Y478); assay: radiometric in vitro kinase assay with SAMS peptide and […]-ATP; type: biochemical
T1 construct: gene PRKAA2; recombinant AMPKα2β1γ1 heterotrimer (#P48-10H, SignalChem); with AMPKβ1, AMPKγ1

[2] = target: T2, AMPKα1 (recombinant AMPKα1β1γ1) (Homo sapiens, UniProt Q13131); assay: radiometric in vitro kinase assay with SAMS peptide and […]-ATP; Lineweaver-Burk; IC50 […]; type: biochemical
T2 construct: gene PRKAA1; recombinant AMPKα1β1γ1 heterotrimer (#P47-10H, SignalChem); with AMPKβ1, AMPKγ1
T2 sequence (Q13131 whole entry): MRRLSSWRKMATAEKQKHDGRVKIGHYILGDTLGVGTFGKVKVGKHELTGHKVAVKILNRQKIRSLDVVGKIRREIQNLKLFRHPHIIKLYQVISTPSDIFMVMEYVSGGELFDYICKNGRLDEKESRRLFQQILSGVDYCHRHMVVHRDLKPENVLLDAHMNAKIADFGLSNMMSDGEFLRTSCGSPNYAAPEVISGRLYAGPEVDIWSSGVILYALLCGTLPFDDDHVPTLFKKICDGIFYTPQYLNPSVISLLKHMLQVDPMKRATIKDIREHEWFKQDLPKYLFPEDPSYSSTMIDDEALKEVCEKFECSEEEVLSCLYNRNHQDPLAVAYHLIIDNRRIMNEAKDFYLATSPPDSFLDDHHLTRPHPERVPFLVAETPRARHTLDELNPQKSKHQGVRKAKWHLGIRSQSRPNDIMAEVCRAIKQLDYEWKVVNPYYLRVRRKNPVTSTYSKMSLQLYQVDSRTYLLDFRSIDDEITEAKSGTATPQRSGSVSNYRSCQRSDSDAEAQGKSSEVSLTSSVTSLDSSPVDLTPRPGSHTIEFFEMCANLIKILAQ
T2 sequence (Q9Y478 2-270 partner): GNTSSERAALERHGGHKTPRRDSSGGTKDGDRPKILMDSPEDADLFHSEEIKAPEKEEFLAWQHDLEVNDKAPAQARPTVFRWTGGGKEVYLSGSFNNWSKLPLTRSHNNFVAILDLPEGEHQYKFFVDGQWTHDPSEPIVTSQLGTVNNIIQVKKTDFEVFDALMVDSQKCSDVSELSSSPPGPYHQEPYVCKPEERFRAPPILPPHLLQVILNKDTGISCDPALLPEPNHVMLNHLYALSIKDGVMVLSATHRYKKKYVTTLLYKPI
T2 sequence (P54619 whole entry partner): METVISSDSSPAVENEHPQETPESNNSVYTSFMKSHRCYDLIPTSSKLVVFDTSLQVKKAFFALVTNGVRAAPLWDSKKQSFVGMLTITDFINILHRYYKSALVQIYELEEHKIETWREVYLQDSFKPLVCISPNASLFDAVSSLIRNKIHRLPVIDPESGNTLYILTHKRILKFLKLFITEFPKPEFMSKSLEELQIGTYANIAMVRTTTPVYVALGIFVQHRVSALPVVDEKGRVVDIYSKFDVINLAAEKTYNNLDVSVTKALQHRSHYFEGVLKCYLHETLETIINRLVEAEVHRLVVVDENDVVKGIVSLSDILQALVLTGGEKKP

T1 sequence (P54646 whole entry): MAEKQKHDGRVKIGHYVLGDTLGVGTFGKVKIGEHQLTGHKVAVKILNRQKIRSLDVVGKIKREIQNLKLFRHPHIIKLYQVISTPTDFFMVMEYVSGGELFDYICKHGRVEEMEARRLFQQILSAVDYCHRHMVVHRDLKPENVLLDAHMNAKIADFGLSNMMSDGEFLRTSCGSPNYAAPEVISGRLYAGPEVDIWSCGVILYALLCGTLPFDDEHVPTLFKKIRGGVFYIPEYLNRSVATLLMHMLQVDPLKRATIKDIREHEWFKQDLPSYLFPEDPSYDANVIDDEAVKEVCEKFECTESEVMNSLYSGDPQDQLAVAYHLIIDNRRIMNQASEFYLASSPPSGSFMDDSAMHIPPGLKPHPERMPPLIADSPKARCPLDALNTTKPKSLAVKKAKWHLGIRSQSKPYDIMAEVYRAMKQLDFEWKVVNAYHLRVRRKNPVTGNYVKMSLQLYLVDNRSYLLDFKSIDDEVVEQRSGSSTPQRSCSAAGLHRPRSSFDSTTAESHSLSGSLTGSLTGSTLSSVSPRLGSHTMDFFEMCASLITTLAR
T1 sequence (Q9Y478 2-270 partner): as the sequence (Q9Y478 2-270 partner) above
T1 sequence (P54619 whole entry partner): as the sequence (P54619 whole entry partner) above

## CN[C@@H]1C(O)[C@H]2O[C@@](C)([C@@H]1OC)n1c3ccccc3c3c4c(c5c6ccccc6n2c5c31)C(=O)NC4 (some centres unmarked) [5-OH-S, 5′-hydroxy-staurosporine]
[1]
  IC50: 583 nM
[2]
  Ki: 347 nM
